Results from US20260199369A1, “COMPOUNDS FOR THE TREATMENT OF NEUROMUSCULAR DISORDERS” (NMD PHARMA A/S, priority 2022, published 2026).
Where two headings read alike, the source gives them in different places.

Tested on: isolated rat soleus muscles
Assay: Measurement of force in an in vitro model: recovery of contractile force of isolated rat soleus nerve-muscle preparation after tubocurarine
Conditions: 40 min, read-out: Point increase (%): percentage increase of initial force that was restored
Experimental: The current disclosure relates to compounds that inhibit CIC-1 ion channels and increase muscle excitability and thereby improve muscle function in clinical conditions where muscle activation is failing. Such conditions result in loss of contractile function of skeletal muscle, weakness and excessive fatigue. In this series of experiments the compounds were tested for their ability to restore contractile function of isolated rat muscle when the neuromuscular transmission had been compromised akin to neuromuscular disorders.
Experimentally, soleus muscles from 4-5 wk old rats were isolated with the motor nerve remaining attached. The nerve-muscle preparations were mounted in experimental setups that enabled electrical stimulation of the motor nerve. Stimulation of the motor nerve led to activation of the muscle fibres and ensuing force production that was recorded. The nerve-muscle preparations were also in these experiments incubated in the standard Krebs Ringer (see example 15) and the solution was heated to 30° C. and continuously equilibrated with a mixture of 95% O2 and 5% CO2, pH ~7.4.
After mounting the nerve-muscle preparation in the experimental setup, the contractile function of the muscle was initially assessed under the control conditions. Sub-maximal concentration of tubocurarine (115 nM), an acetylcholine receptor antagonist, was then added to the experimental bath to impose partial inhibition of the ability of the motor nerve to activate the muscle fibres. The experimental condition mimics the failing neuromuscular transmission in a range of neuromuscular disorders. After addition of tubocurarine the contractile force declined over the next 90 minutes to 10-50% of the control force. The test compound was then added to obtain the required compound concentration in the bath and the contractile force recovered was measured. To quantify the ability of the compound to restore force the percentage of the initial force that was restored was determined after 40 mins of compound exposure and the point increase is reported in Tables 3 to 7.

[1] = 50 μM of test compound, tubocurarine 115 nM, after 40 mins of compound exposure
[2] = 25 μM of test compound, tubocurarine 115 nM, after 40 mins of compound exposure
[3] = 100 μM of test compound, tubocurarine 115 nM, after 40 mins of compound exposure

Question: How did the activation at 25 µM turn out when `COc1c(Cl)cc2c(c1C(=O)O)OCCN2Cc1ccccc1` [Compound A-52, 4-Benzyl-6-chloro-7-methoxy-3,4-dihydro-2H-1,4-benzoxazine-8-carboxylic acid] was run?
Answer: The activation at 25 µM was 14%.

Question: `COc1c(Cl)cc2c(c1C(=O)O)OC1(CCC1)CN2C` [Compound A-39, 6-Chloro-7-methoxy-4-methyl-3,4-dihydrospiro[1,4-benzoxazine-2,1′-cyclobutane]-8-carboxylic acid] was tested. Which activation at 50 µM [1] did it give?
Answer: Its activation at 50 µM is 35%.

Question: Which activation at 10 µM (10 μM of test compound, tubocurarine 115 nM, after 40 mins of compound exposure) does the source give for `Cc1ccccc1CN1CCOc2cc(Cl)c(F)c(C(=O)O)c21` [Compound A-62, 7-Chloro-6-fluoro-4-[(o-tolyl)methyl]-3,4-dihydro-2H-1,4-benzoxazine-5-carboxylic acid] here?
Answer: Its activation at 10 µM is 28%.

Question: `COc1c(Cl)cc2c(c1C(=O)O)OCCN2CCc1cc(F)cc(F)c1` [Compound A-53, 6-Chloro-4-[2-(3,5-difluorophenyl)ethyl]-7-methoxy-3,4-dihydro-2H-1,4-benzoxazine-8-carboxylic acid] was tested. Which activation at 25 µM [2] did it give?
Answer: The activation at 25 µM was 30%.

Question: `O=C(O)c1c(F)c(Cl)cc2c1OCCN2CC1CC1` [Compound A-20, 6-Chloro-4-(cyclopropylmethyl)-7-fluoro-3,4-dihydro-2H-1,4-benzoxazine-8-carboxylic acid] was tested. Which activation at 50 µM [1] did it give?
Answer: Its activation at 50 µM is 22%.

Question: `O=C(O)c1c(Cl)c(Cl)cc2c1OCCN2Cc1ccccc1` [Compound A-41, 4-Benzyl-6,7-dichloro-3,4-dihydro-2H-1,4-benzoxazine-8-carboxylic acid] was tested. Which activation at 100 µM did it give?
Answer: Its activation at 100 µM is 28%.

Question: `COc1c(Cl)cc2c(c1C(=O)O)OCCN2CCCc1ccco1` [Compound A-40, 6-Chloro-4-[3-(furan-2-yl)propyl]-7-methoxy-3,4-dihydro-2H-1,4-benzoxazine-8-carboxylic acid] was tested. Which activation at 25 µM [2] did it give?
Answer: The activation at 25 µM was 14%.

Question: `O=C(O)c1c(F)c(Cl)cc2c1N(Cc1ccccc1)CCO2` [Compound A-45, 4-Benzyl-7-chloro-6-fluoro-3,4-dihydro-2H-1,4-benzoxazine-5-carboxylic acid] was tested. Which activation at 10 µM did it give?
Answer: The activation at 10 µM was 43%.

Question: For `COc1c(Cl)cc2c(c1C(=O)O)OC(C)(C)CN2C` [Compound A-37, 6-Chloro-7-methoxy-2,2,4-trimethyl-3,4-dihydro-2H-1,4-benzoxazine-8-carboxylic acid], which activation at 50 µM [1] is on record?
Answer: The activation at 50 µM was 51%.

Question: For `O=C(O)c1c(F)c(Cl)cc2c1NCCO2` [Compound A-11, 7-Chloro-6-fluoro-3,4-dihydro-2H-1,4-benzoxazine-5-carboxylic acid], which activation at 50 µM [1] is on record?
Answer: The activation at 50 µM was 23%.

Question: How did the activation at 50 µM turn out when `COc1c(Cl)cc2c(c1C(=O)O)OCCCN2C` [Compound A-12, 7-Chloro-8-methoxy-5-methyl-2,3,4,5-tetrahydro-1,5-benzoxazepine-9-carboxylic acid] was run?
Answer: Its activation at 50 µM is 54%.

Question: `COc1c(Cl)cc2c(c1C(=O)O)OCCN2` [Compound A-14, 6-Chloro-7-methoxy-3,4-dihydro-2H-1,4-benzoxazine-8-carboxylic acid] was tested. Which activation at 25 µM [2] did it give?
Answer: The activation at 25 µM was 28%.

Question: For `COc1c(Cl)cc2c(c1C(=O)O)OCCN2CCc1ccccc1` [Compound A-33, 6-Chloro-7-methoxy-4-(2-phenylethyl)-3,4-dihydro-2H-1,4-benzoxazine-8-carboxylic acid], which activation at 50 µM [1] is on record?
Answer: The activation at 50 µM was 25%.

Question: How did the activation at 50 µM turn out when `COc1c(C)cc2c(c1C(=O)O)OCCN2C` [Compound A-31, 7-Methoxy-4,6-dimethyl-3,4-dihydro-2H-1,4-benzoxazine-8-carboxylic acid] was run?
Answer: Its activation at 50 µM is 32%.

Question: For `COc1c(Cl)c(F)c2c(c1C(=O)O)OCCN2C` [Compound A-44, 6-Chloro-5-fluoro-7-methoxy-4-methyl-3,4-dihydro-2H-1,4-benzoxazine-8-carboxylic acid], which activation at 25 µM is on record?
Answer: Its activation at 25 µM is 35%.

Question: How did the activation at 10 µM turn out when `COc1c(Cl)cc2c(c1C(=O)O)N(C)CCO2` [Compound A-10, 7-Chloro-6-methoxy-4-methyl-3,4-dihydro-2H-1,4-benzoxazine-5-carboxylic acid] was run?
Answer: The activation at 10 µM was 36%.

Question: For `O=C(O)c1c(F)c(Cl)cc2c1OCCN2Cc1ccccc1` [Compound A-22, 4-Benzyl-6-chloro-7-fluoro-3,4-dihydro-2H-1,4-benzoxazine-8-carboxylic acid], which activation at 100 µM [3] is on record?
Answer: Its activation at 100 µM is 15%.

Question: Which activation at 50 µM [1] does the source give for `CCOc1c(Cl)cc2c(c1C(=O)O)OCCCN2C` [Compound A-16, 7-chloro-8-ethoxy-5-methyl-2,3,4,5-tetrahydro-1,5-benzoxazepine-9-carboxylic acid] here?
Answer: Its activation at 50 µM is 49%.

Question: With `COCCN1CCOc2c1cc(Cl)c(F)c2C(=O)O` [Compound A-38, 6-Chloro-7-fluoro-4-(2-methoxyethyl)-3,4-dihydro-2H-1,4-benzoxazine-8-carboxylic acid] as the molecule, how does the activation at 50 µM [1] read?
Answer: The activation at 50 µM was 17%.

Question: With `COc1c(Cl)cc2c(c1C(=O)O)OCCN2CCCc1nccs1` [Compound A-47, 6-Chloro-7-methoxy-4-[3-(1,3-thiazol-2-yl)propyl]-3,4-dihydro-2H-1,4-benzoxazine-8-carboxylic acid] as the molecule, how does the activation at 100 µM [3] read?
Answer: The activation at 100 µM was 14%.

Question: For `Cc1c(Cl)cc2c(c1C(=O)O)OCCN2C` [Compound A-48, 6-chloro-4,7-dimethyl-3,4-dihydro-2H-1,4-benzoxazine-8-carboxylic acid], which activation at 25 µM is on record?
Answer: Its activation at 25 µM is 23%.

Question: With `COCC1CN(C)c2cc(Cl)c(OC)c(C(=O)O)c2O1` (stereo not drawn) [Compound A-35, 6-Chloro-7-methoxy-2-(methoxymethyl)-4-methyl-3,4-dihydro-2H-1,4-benzoxazine-8-carboxylic acid] as the molecule, how does the activation at 50 µM [1] read?
Answer: The activation at 50 µM was 21%.

Question: With `COc1c(Cl)cc2c(c1C(=O)O)OCCN2C(C)C` [Compound A-32, 6-Chloro-7-methoxy-4-(propan-2-yl)-3,4-dihydro-2H-1,4-benzoxazine-8-carboxylic acid] as the molecule, how does the activation at 50 µM [1] read?
Answer: The activation at 50 µM was 39%.

Question: `CCCN1CCOc2cc(Cl)c(F)c(C(=O)O)c21` [Compound A-56, 7-Chloro-6-fluoro-4-propyl-3,4-dihydro-2H-1,4-benzoxazine-5-carboxylic acid] was tested. Which activation at 35 µM (35 μM of test compound, tubocurarine 115 nM, after 40 mins of compound exposure) did it give?
Answer: The activation at 35 µM was 48%.

Question: Which activation at 25 µM does the source give for `CSc1c(Cl)cc2c(c1C(=O)O)OCCN2C` [Compound A-26, 6-Chloro-4-methyl-7-(methylsulfanyl)-3,4-dihydro-2H-1,4-benzoxazine-8-carboxylic acid] here?
Answer: The activation at 25 µM was 28%.

Question: With `CC(C)Oc1c(Cl)cc2c(c1C(=O)O)OCCN2C` [Compound A-24, 6-Chloro-4-methyl-7-(propan-2-yloxy)-3,4-dihydro-2H-1,4-benzoxazine-8-carboxylic acid] as the molecule, how does the activation at 50 µM read?
Answer: The activation at 50 µM was 34%.

Question: How did the activation at 25 µM [2] turn out when `O=C(O)c1c(F)c(Cl)cc2c1OCCN2CC1CCC1` [Compound A-46, 6-Chloro-4-(cyclobutylmethyl)-7-fluoro-3,4-dihydro-2H-1,4-benzoxazine-8-carboxylic acid] was run?
Answer: Its activation at 25 µM is 8%.

Question: With `COc1c(Cl)cc2c(c1C(=O)O)OCCN2Cc1nccs1` [Compound A-43, 6-Chloro-7-methoxy-4-[(1,3-thiazol-2-yl)methyl]-3,4-dihydro-2H-1,4-benzoxazine-8-carboxylic acid] as the molecule, how does the activation at 100 µM [3] read?
Answer: The activation at 100 µM was 14%.

Question: With `COc1c(Cl)cc2c(c1C(=O)O)OCCN2Cc1cccs1` [Compound A-42, 6-chloro-7-methoxy-4-[(thiophen-2-yl)methyl]-3,4-dihydro-2H-1,4-benzoxazine-8-carboxylic acid] as the molecule, how does the activation at 25 µM [2] read?
Answer: The activation at 25 µM was 30%.

Question: How did the activation at 50 µM turn out when `O=C(O)c1c(F)c(Cl)cc2c1OCCCN2` [Compound A-15, 7-Chloro-8-fluoro-2,3,4,5-tetrahydro-1,5-benzoxazepine-9-carboxylic acid] was run?
Answer: Its activation at 50 µM is 51%.
